Measurements reported in ChEMBL document CHEMBL4837216, “Polymyxin B-inspired non-hemolytic tyrocidine A analogues with significantly enhanced activity against gram-negative bacteria: How cationicity impacts cell specificity and antibacterial mechanism” (Eur J Med Chem, 2021).
In brackets after ≈: the same amount, converted by molar mass. Activity calls are given as the source filed them. The calls are words filed in the database; no cut-off is given here. Where a SMILES comes first, the peptide text is derived from it. Bridges are numbered along the chain shown (N, C = ends). [ ]: non-standard residue; d: D form. The star is where a group is joined. X1 = CC[C@H](C)CCCCC(=O)*; Orn = NCCC[C@H](N)C(=O)O; Dab = NCC[C@H](N)C(=O)O

Key:
[1] = test system: Escherichia coli; experiment: Antibacterial activity against Escherichia coli ATCC 8739 assessed as inhibition of bacterial growth measured after 24 hrs by turbidity based analysis; assay type: functional
[2] = test system: Staphylococcus aureus; experiment: Antibacterial activity against Staphylococcus aureus ATCC 6538 assessed as inhibition of bacterial growth measured after 24 hrs by turbidity based analysis; assay type: functional
[3] = test system: Enterococcus faecalis; experiment: Antibacterial activity against Enterococcus faecalis ATCC 29212 assessed as inhibition of bacterial growth measured after 24 hrs by turbidity based analysis; assay type: functional
[4] = test system: Acinetobacter baumannii; experiment: Antibacterial activity against Acinetobacter baumannii ATCC 19606 assessed as inhibition of bacterial growth measured after 24 hrs by turbidity based analysis; assay type: functional; details: ATCC 19606 = CIP 70.34 = JCM 6841
[5] = test system: Staphylococcus aureus; experiment: Antibacterial activity against methicillin resistant Staphylococcus aureus assessed as inhibition of bacterial growth measured after 24 hrs by turbidity based analysis; assay type: functional
[6] = test system: Lipopolysaccharide (LPS); experiment: Displacement of dansyl-polymyxinB from LPS (unknown origin) assessed as decrease in fluorescence intensity by fluorescence spectrophotometric analysis
[7] = test system: Pseudomonas aeruginosa; experiment: Antibacterial activity against Pseudomonas aeruginosa ATCC 27853 assessed as inhibition of bacterial growth measured after 24 hrs by turbidity based analysis; assay type: functional
[8] = Hemolytic activity in human RBC assessed as induction of cell lysis measured after 30 mins by microtiter plate method; assay type: cell-based, Erythrocyte; details: human red blood cells (erythrocytes)
[9] = test system: Cell membrane; experiment: Induction of outer membrane permeabilization to NPN in Escherichia coli ATCC 8739 cells assessed as increase in fluorescence intensity by NPN-probe based fluorescence spectrophotometric analysis; assay type: subcellular
[10] = test system: Cell membrane; experiment: Induction of cytoplasmic membrane depolarization in Escherichia coli assessed as increase in fluorescence intensity a 1XMIC by DiSC3-5 dye based fluorescence method
[11] = test system: Cell membrane; experiment: Induction of cytoplasmic membrane depolarization in Staphylococcus aureus assessed as increase in fluorescence intensity a 1XMIC by DiSC3-5 dye based fluorescence method
[12] = test system: Cell membrane; experiment: Induction of cytoplasmic membrane permeabilization in Staphylococcus aureus at 1 times MIC measured for 10 mins by propidium iodide dye based fluorescence assay
[13] = test system: Lipid bilayer; experiment: Binding affinity to eukaryotic cell membrane mimic DOPC/Cholesterol (3:1) large unilamellar vesicles assessed as calcein leakage measured after 30 mins fluorescence based assay
[14] = test system: Escherichia coli; experiment: Bactericidal activity against Escherichia coli assessed as decrease in cell survival at 0.5XMIC measured after 24 hrs by colony counting assay; assay type: functional, organism-based
[15] = test system: Staphylococcus aureus; experiment: Bactericidal activity against Staphylococcus aureus assessed as decrease in cell survival at 0.5XMIC measured after 24 hrs by colony counting assay; assay type: functional, organism-based
[16] = test system: Lipid bilayer; experiment: Binding affinity to bacterial inner membrane mimic DOPE/DOPG (3:1) large unilamellar vesicles assessed as calcein leakage measured after 30 mins fluorescence based assay
[17] = test system: L02; experiment: Cytotoxicity against human L02 cells assessed as reduction in cell viability at 5 uM incubated for 24 hrs by CCK8 assay; assay type: cell-based; details: l02, 24 h
[18] = test system: Cell membrane; experiment: Induction of cytoplasmic membrane permeabilization in Escherichia coli at 0.5 times MIC measured for 10 mins by propidium iodide dye based fluorescence assay; assay type: subcellular
[19] = test system: Cell membrane; experiment: Induction of cytoplasmic membrane permeabilization in Escherichia coli at 1 times MIC measured for 10 mins by propidium iodide dye based fluorescence assay; assay type: subcellular
[20] = test system: Cell membrane; experiment: Induction of cytoplasmic membrane permeabilization in Staphylococcus aureus at 0.5 times MIC measured for 10 mins by propidium iodide dye based fluorescence assay; assay type: subcellular
[21] = test system: Staphylococcus aureus; experiment: Antibacterial activity against Staphylococcus aureus ATCC 6538 assessed as inhibition of bacterial growth measured after 17 passages by turbidity based analysis; assay type: functional, organism-based
[22] = test system: Escherichia coli; experiment: Antibacterial activity against Escherichia coli ATCC 8739 assessed as inhibition of bacterial growth measured after 17 passages by turbidity based analysis; assay type: functional, organism-based

Structure (SMILES) | MIC [1] | MIC [2] | MIC [3] | MIC [4] | MIC [5] | Activity [6] | MIC [7] | HC50 at 0.5 h [8] | Activity [9] | Activity [10] | Activity [11] | other results
CC(C)[C@@H]1NC(=O)[C@H](CCCN)NC(=O)[C@H](CCCN)NC(=O)[C@H](CCCN)NC(=O)[C@@H](Cc2ccccc2)NC(=O)[C@H](Cc2ccccc2)NC(=O)[C@@H]2CCCN2C(=O)[C@@H](Cc2ccccc2)NC(=O)[C@H](CCCN)NC(=O)[C@H](CCCN)NC1=O | 80 µM (≈ 96.7 µg/mL) | 40 µM (≈ 48.3 µg/mL) | 10 µM (≈ 12.1 µg/mL) | 80 µM (≈ 96.7 µg/mL) | 10 µM (≈ 12.1 µg/mL) | Active | 80 µM (≈ 96.7 µg/mL) | > 400 µM |  |  |  | 
CC(C)C[C@@H]1NC(=O)[C@H](CCCN)NC(=O)[C@H](C(C)C)NC(=O)[C@H](Cc2ccc(O)cc2)NC(=O)[C@H](CCC(N)=O)NC(=O)[C@H](CCCN)NC(=O)[C@@H](Cc2ccccc2)NC(=O)[C@H](Cc2ccccc2)NC(=O)[C@@H]2CCCN2C(=O)[C@@H](Cc2ccccc2)NC1=O | 20 µM (≈ 25.4 µg/mL) | 5 µM (≈ 6.35 µg/mL) | 2.5 µM (≈ 3.18 µg/mL) | 5 µM (≈ 6.35 µg/mL) | 20 µM (≈ 25.4 µg/mL) |  | 80 µM (≈ 102 µg/mL) | 20 µM | Active |  |  | 
CC(C)C[C@@H]1NC(=O)[C@H](CCCN)NC(=O)[C@H](C(C)C)NC(=O)[C@H](CCCN)NC(=O)[C@H](CCCN)NC(=O)[C@H](CCCN)NC(=O)[C@@H](Cc2ccccc2)NC(=O)[C@H](Cc2ccccc2)NC(=O)[C@@H]2CCCN2C(=O)[C@@H](Cc2ccccc2)NC1=O | 5 µM (≈ 6.04 µg/mL) | 5 µM (≈ 6.04 µg/mL) | 5 µM (≈ 6.04 µg/mL) | 10 µM (≈ 12.1 µg/mL) | 10 µM (≈ 12.1 µg/mL) | Active | 20 µM (≈ 24.2 µg/mL) | 196 µM | Active | Active | Active | 
CC(C)C[C@@H]1NC(=O)[C@H](CCCN)NC(=O)[C@H](C(C)C)NC(=O)[C@H](CCCN)NC(=O)[C@H](CCCN)NC(=O)[C@H](CC(N)=O)NC(=O)[C@@H](Cc2ccccc2)NC(=O)[C@H](Cc2ccccc2)NC(=O)[C@@H]2CCCN2C(=O)[C@@H](Cc2ccccc2)NC1=O | 10 µM (≈ 12.1 µg/mL) | 10 µM (≈ 12.1 µg/mL) | 2.5 µM (≈ 3.02 µg/mL) | 10 µM (≈ 12.1 µg/mL) | 10 µM (≈ 12.1 µg/mL) |  | 20 µM (≈ 24.1 µg/mL) | 70 µM |  |  |  | 
CC[C@H](C)CCCCC(=O)N[C@@H](CCN)C(=O)N[C@H](C(=O)N[C@@H](CCN)C(=O)N[C@H]1CCNC(=O)[C@H]([C@@H](C)O)NC(=O)[C@H](CCN)NC(=O)[C@H](CCN)NC(=O)[C@H](CC(C)C)NC(=O)[C@@H](Cc2ccccc2)NC(=O)[C@H](CCN)NC1=O)[C@@H](C)O (X1-[Dab]T[Dab][Dab][Dab][dF]L[Dab][Dab]T; lactam 4-C) |  |  |  |  |  | Active |  |  |  |  |  | 
CC(C)C[C@@H]1NC(=O)[C@H](CCCN)NC(=O)[C@H](C(C)C)NC(=O)[C@H](Cc2ccc(O)cc2)NC(=O)[C@H](CCC(N)=O)NC(=O)[C@H](CC(N)=O)NC(=O)[C@@H](Cc2ccccc2)NC(=O)[C@H](Cc2ccccc2)NC(=O)[C@@H]2CCCN2C(=O)[C@@H](Cc2ccccc2)NC1=O [TYROCIDINE A] (cyclo(F[dF]NQYV[Orn]L[dF]P)) | 20 µM (≈ 25.4 µg/mL) | 2.5 µM (≈ 3.18 µg/mL) | 2.5 µM (≈ 3.18 µg/mL) | 10 µM (≈ 12.7 µg/mL) | 20 µM (≈ 25.4 µg/mL) | Active | 80 µM (≈ 102 µg/mL) | 14 µM | Active | Active | Active | Activity [12]: Active; Activity [13]: Active; Activity [14]: inactive; Activity [15]: inactive; Activity [16]: Active; Activity [17]: Toxic; Activity [18]: Active; Activity [19]: Active; Activity [20]: Active
CC(C)C[C@@H]1NC(=O)[C@H](CCCN)NC(=O)[C@H](C(C)C)NC(=O)[C@H](CCCN)NC(=O)[C@H](CCC(N)=O)NC(=O)[C@H](CC(N)=O)NC(=O)[C@@H](Cc2ccccc2)NC(=O)[C@H](Cc2ccccc2)NC(=O)[C@@H]2CCCN2C(=O)[C@@H](Cc2ccccc2)NC1=O | 40 µM (≈ 48.9 µg/mL) | 10 µM (≈ 12.2 µg/mL) | 5 µM (≈ 6.11 µg/mL) | 10 µM (≈ 12.2 µg/mL) | 10 µM (≈ 12.2 µg/mL) |  | 80 µM (≈ 97.7 µg/mL) | 43 µM |  |  |  | 
CC(C)C[C@@H]1NC(=O)[C@H](CCCN)NC(=O)[C@H](C(C)C)NC(=O)[C@H](Cc2ccc(O)cc2)NC(=O)[C@H](CCCN)NC(=O)[C@H](CCCN)NC(=O)[C@@H](Cc2ccccc2)NC(=O)C(Cc2ccccc2)NC(=O)[C@@H]2CCCN2C(=O)[C@@H](Cc2ccccc2)NC1=O (single isomer, unassigned) | 5 µM (≈ 6.28 µg/mL) | 5 µM (≈ 6.28 µg/mL) | 2.5 µM (≈ 3.14 µg/mL) | 5 µM (≈ 6.28 µg/mL) | 5 µM (≈ 6.28 µg/mL) |  | 40 µM (≈ 50.3 µg/mL) | 24 µM |  |  |  | 
O=C(O)c1cn(C2CC2)c2cc(N3CCNCC3)c(F)cc2c1=O |  |  |  |  |  |  |  |  |  |  |  | Activity [21]: inactive; Activity [22]: inactive
NCCC[C@@H]1NC(=O)[C@H](CCCN)NC(=O)[C@H](CCCN)NC(=O)[C@H](CCCN)NC(=O)[C@@H](Cc2ccccc2)NC(=O)[C@H](Cc2ccccc2)NC(=O)[C@@H]2CCCN2C(=O)[C@@H](Cc2ccccc2)NC(=O)[C@H](CCCN)NC(=O)[C@H](CCCN)NC1=O | 40 µM (≈ 48.9 µg/mL) | 20 µM (≈ 24.5 µg/mL) | 10 µM (≈ 12.2 µg/mL) | 80 µM (≈ 97.9 µg/mL) | 40 µM (≈ 48.9 µg/mL) | Active | 80 µM (≈ 97.9 µg/mL) | > 400 µM | Active | inactive | inactive | 
CC(C)C[C@@H]1NC(=O)[C@H](CCCN)NC(=O)[C@H](C(C)C)NC(=O)[C@H](Cc2ccc(O)cc2)NC(=O)[C@H](CCCN)NC(=O)[C@H](CC(N)=O)NC(=O)[C@@H](Cc2ccccc2)NC(=O)[C@H](Cc2ccccc2)NC(=O)[C@@H]2CCCN2C(=O)[C@@H](Cc2ccccc2)NC1=O (cyclo(F[dF]N[Orn]YV[Orn]L[dF]P)) | 5 µM (≈ 6.28 µg/mL) | 2.5 µM (≈ 3.14 µg/mL) | 1.25 µM (≈ 1.57 µg/mL) | 5 µM (≈ 6.28 µg/mL) | 5 µM (≈ 6.28 µg/mL) |  | 40 µM (≈ 50.3 µg/mL) | 10 µM |  |  |  | 
CC(C)C[C@@H]1NC(=O)[C@H](CCCN)NC(=O)[C@H](C(C)C)NC(=O)[C@H](CCCN)NC(=O)[C@H](CCC(N)=O)NC(=O)[C@H](CCCN)NC(=O)[C@@H](Cc2ccccc2)NC(=O)[C@H](Cc2ccccc2)NC(=O)[C@@H]2CCCN2C(=O)[C@@H](Cc2ccccc2)NC1=O | 5 µM (≈ 6.11 µg/mL) | 5 µM (≈ 6.11 µg/mL) | 5 µM (≈ 6.11 µg/mL) | 10 µM (≈ 12.2 µg/mL) | 10 µM (≈ 12.2 µg/mL) |  | 40 µM (≈ 48.9 µg/mL) | 282 µM | Active | Active | Active | 
